# Structures can show the parent of a compound that is named as a salt.
# Key:
# Format in all cases: physicochemical
# [1] = Solubility of photosensitive agent in polyvinylpyrrolidone/ethylcellosolve solution; conditions: Table 2; 5 g polyvinylpyrrolidone in 106 g ethylcellosolve; sodium salt (*): solubility varied with crystal form
# Protocol: The respective Amides synthesized in Examples 1 and 2 in amounts shown in Table 2 are dissolved in a solution comprising 5 g of polyvinylpyrrolidone (average molecular weight: 320,000) dissolved in 106 g of ethylcellosolve,to evaluate their solubility.
# [2] = as above; conditions: Table 4; 5 g polyvinylpyrrolidone in 106 g ethylcellosolve; sodium salt (*): solubility varied with crystal form
# [3] = Solubility in water
# [4] = Solubility in water; remark: listed apart in the source
# Protocol: (§1) The compounds shown in Table 7 were prepared using the same procedures as in Example 16, and each compound was measured for solubilities in 2.5% ethylcellosolve and water to obtain the results shown in Table 7.
# [5] = Solubility in 2.5% ethylcellosolve; design: key to Solubility in 2.5% ethylcellosolve, 25° C. / Solubility in 2.5% ethylcellosolve, 60° C.: Good: completely soluble; Fair: with small amounts of undissolved portion; Poor: with large amounts of undissolved portion; conditions: for Solubility in 2.5% ethylcellosolve, 25° C. / Solubility in 2.5% ethylcellosolve, 60° C.: Table 7; for solubility (comparison in words): compared to Comparative Examples 14-16, Table 7
# Protocol: as §1
# [6] = Solubility in ethylcellosolve solution containing 4.5% polyvinylpyrrolidone and compatibility with binder polymers; conditions: Example 20
# Description: A 4,4'-diazidostilbene-2,2'-disulfonic acid aqueous solution was obtained using the same procedures as in Example 15. It was mixed with dibutylamine and the pH value adjusted to 9.0 to deposit crystals. The crystals were filtered, washed with water, and dried to obtain dibutylamine salt of 4,4'-diazidostilbene-2,2'-disulfonic acid (yield: 91.2%).
# [7] = listed as Comparative Example 16
# [8] = listed as Comparative Example 15
compound,measurement,setting,value
[N-]=[N+]=Nc1ccc(C=Cc2ccc(N=[N+]=[N-])cc2S(=O)(=O)NCCCO)c(S(=O)(=O)NCCCO)c1 [Amide No. 1],Solubility,[1],Good
[N-]=[N+]=Nc1ccc(C=Cc2ccc(N=[N+]=[N-])cc2S(=O)(=O)NCCO)c(S(=O)(=O)NCCO)c1 [Amide No. 2],Solubility,[1],Good
CC(CCO)NS(=O)(=O)c1cc(N=[N+]=[N-])ccc1C=Cc1ccc(N=[N+]=[N-])cc1S(=O)(=O)NC(C)CCO (stereo not shown) [Amide No. 3],Solubility,[1],Good
[N-]=[N+]=Nc1ccc(C=Cc2ccc(N=[N+]=[N-])cc2S(=O)(=O)NCCOCCO)c(S(=O)(=O)NCCOCCO)c1 [Amide No. 4],Solubility,[1],Good
COCCOCCNS(=O)(=O)c1cc(N=[N+]=[N-])ccc1C=Cc1ccc(N=[N+]=[N-])cc1S(=O)(=O)NCCOCCOC [Amide No. 7],Solubility,[1],Good
CCOCCNS(=O)(=O)c1cc(N=[N+]=[N-])ccc1C=Cc1ccc(N=[N+]=[N-])cc1S(=O)(=O)NCCOCC [Amide No. 8],Solubility,[1],Good
CCCCCCCCNS(=O)(=O)c1cc(N=[N+]=[N-])ccc1C=Cc1ccc(N=[N+]=[N-])cc1S(=O)(=O)NCCCCCCCC [Amide No. 9],Solubility,[2],Good
CC(C)CNS(=O)(=O)c1cc(N=[N+]=[N-])ccc1C=Cc1ccc(N=[N+]=[N-])cc1S(=O)(=O)NCC(C)C [Amide No. 10],Solubility,[2],Good
CCCCCCCNS(=O)(=O)c1cc(N=[N+]=[N-])ccc1C=Cc1ccc(N=[N+]=[N-])cc1S(=O)(=O)NCCCCCCC [Amide No. 11],Solubility,[2],Good
CCCCN(C)S(=O)(=O)c1cc(N=[N+]=[N-])ccc1C=Cc1ccc(N=[N+]=[N-])cc1S(=O)(=O)N(C)CCCC [Amide No. 14],Solubility,[2],Good
CCCCCN(CCCCC)S(=O)(=O)c1cc(N=[N+]=[N-])ccc1C=Cc1ccc(N=[N+]=[N-])cc1S(=O)(=O)N(CCCCC)CCCCC [Amide No. 15],Solubility,[2],Good
"[N-]=[N+]=Nc1ccc(C=Cc2ccc(N=[N+]=[N-])cc2S(=O)(=O)O)c(S(=O)(=O)O)c1 [Ammonium salt, reference compound]","Solubility (water, 25° C.)","[3]; Table 5, listed as Comparative Example 12",1.8%
same,"Solubility in water, 25° C.","[4]; Table 7, listed as Comparative Example 16",18%
same,"Solubility in 2.5% ethylcellosolve, 25° C.",[5]; [7],Poor
same,"Solubility in 2.5% ethylcellosolve, 60° C.",[5]; [7],Poor
same,Solubility,[1],Poor
same,Solubility,[2],Poor
"[N-]=[N+]=Nc1ccc(C=Cc2ccc(N=[N+]=[N-])cc2S(=O)(=O)Nc2ccccc2)c(S(=O)(=O)Nc2ccccc2)c1 [Arylamide A, reference compound]",Solubility,[1],Poor
"[N-]=[N+]=Nc1ccc(C=Cc2ccc(N=[N+]=[N-])cc2S(=O)(=O)Nc2ccccc2)c(S(=O)(=O)Nc2ccccc2)c1 [Arylamide B, reference compound]",Solubility,[2],Poor
"CC1CC(=Cc2ccc(N=[N+]=[N-])cc2S(=O)(=O)O)C(=O)C(=Cc2ccc(N=[N+]=[N-])cc2S(=O)(=O)O)C1 (stereo not shown) [Comparative Example 13, Na salt of 2,6-bis(4'-azidobenzal)-4-methyl-cyclohexanone-2,2'-disulfonic acid, reference compound]","Solubility (water, 25° C.)",[3]; Table 6,0.9%
"CCOCCOS(=O)(=O)c1cc(N=[N+]=[N-])ccc1C=Cc1ccc(N=[N+]=[N-])cc1S(=O)(=O)OCCOCC [Ester B, reference compound]",Solubility,[1],Good
"CCCCOS(=O)(=O)c1cc(N=[N+]=[N-])ccc1C=Cc1ccc(N=[N+]=[N-])cc1S(=O)(=O)OCCCC [Ester C, reference compound]",Solubility,[2],Good
[N-]=[N+]=Nc1ccc(C=Cc2ccc(N=[N+]=[N-])cc2S(=O)(=O)O)c(S(=O)(=O)O)c1 [Example 16],"Solubility (water, 25° C.)",[3]; Table 5,≥ 10%
"[N-]=[N+]=Nc1ccc(C=Cc2ccc(N=[N+]=[N-])cc2S(=O)(=O)O)c(S(=O)(=O)O)c1 [Example 17, triethylamine salt of 4,4'-diazidostilbene-2,2'-disulfonic acid]","Solubility (water, 25° C.)",[3]; Table 5,≥ 10%
CC1CC(=Cc2ccc(N=[N+]=[N-])cc2S(=O)(=O)O)C(=O)C(=Cc2ccc(N=[N+]=[N-])cc2S(=O)(=O)O)C1 (stereo not shown) [Example 18],"Solubility (water, 25° C.)",[3]; Table 6,7.0%
"CC1CC(=Cc2ccc(N=[N+]=[N-])cc2S(=O)(=O)O)C(=O)C(=Cc2ccc(N=[N+]=[N-])cc2S(=O)(=O)O)C1 (stereo not shown) [Example 19, triethylamine salt of 2,6-bis-(4'-azidobenzal)-4-methyl-cyclohexanone-2,2'-disulfonic acid]","Solubility (water, 25° C.)",[3]; Table 6,≥ 10%
"[N-]=[N+]=Nc1ccc(C=Cc2ccc(N=[N+]=[N-])cc2S(=O)(=O)O)c(S(=O)(=O)O)c1 [Example 20, dibutylamine salt of 4,4'-diazidostilbene-2,2'-disulfonic acid]",compatibility with binder polymers,[6],high in compatibility with binder polymers
same,soluble in an ethylcellosolve solution containing 4.5% polyvinylpyrrolidone,[6],≥ 5%
same,solubility in water (in words),[3]; Example 20,very low in solubility in water
[N-]=[N+]=Nc1ccc(C=Cc2ccc(N=[N+]=[N-])cc2S(=O)(=O)O)c(S(=O)(=O)O)c1 [Example 21],"Solubility in water, 25° C.",[4]; Table 7,6.5%
same,"Solubility in 2.5% ethylcellosolve, 25° C.",[5],Good
same,"Solubility in 2.5% ethylcellosolve, 60° C.",[5],Good
same,solubility (comparison in words),[5],good solubilities
[N-]=[N+]=Nc1ccc(C=Cc2ccc(N=[N+]=[N-])cc2S(=O)(=O)O)c(S(=O)(=O)O)c1 [Example 22],"Solubility in water, 25° C.",[4]; Table 7,≥ 10%
same,"Solubility in 2.5% ethylcellosolve, 25° C.",[5],Good
same,"Solubility in 2.5% ethylcellosolve, 60° C.",[5],Good
same,solubility (comparison in words),[5],good solubilities
"CCCNS(=O)(=O)c1cc(N=[N+]=[N-])ccc1C=Cc1ccc(N=[N+]=[N-])cc1S(=O)(=O)NCCC [Lower alkyl amide A, reference compound]",Solubility,[2],Poor
"[N-]=[N+]=Nc1ccc(C=Cc2ccc(N=[N+]=[N-])cc2S(=O)(=O)[O-])c(S(=O)(=O)[O-])c1.[Na+].[Na+] [Sodium salt, sodium 4,4'-diazidostilbene-2,2'-disulfonate, reference compound]","Solubility (water, 25° C.)",[3]; Table 5,3.3%
same,"Solubility in 2.5% ethylcellosolve, 25° C.",[5],Fair
same,"Solubility in 2.5% ethylcellosolve, 60° C.",[5],Good
same,Solubility,[1],Fair
same,Solubility,[2],Fair
"[N-]=[N+]=Nc1ccc(C=Cc2ccc(N=[N+]=[N-])cc2S(=O)(=O)O)c(S(=O)(=O)O)c1 [compound 11, reference compound]","Solubility (water, 25° C.)",[3]; Table 5,3.0%
same,"Solubility in 2.5% ethylcellosolve, 25° C.",[5]; [8],Poor
same,"Solubility in 2.5% ethylcellosolve, 60° C.",[5]; [8],Poor

# From patent publication US5041570A, “Photosensitive 4,4'-diazidostilbene derivative” (priority 1988, dated 1991)
